Assay results as given in patent publication US6316500A, “Aliphatically unsaturated hydroxy benzoates and preservative compositions thereof” (ISP Investments Inc., priority 1999, dated 2001).

Experiments:
[1] = Partition coefficients (log of oil/water solubility)
Excerpt: A greater water partitioning is indicated by a low log value.

S. aureus 6538 = assay: Activity test: preservative challenge test in emulsion, S. aureus 6538; type: cell-based; details: for number of colonies per milliliter, 28 days: reinoculated at 21 days
Experimental: (§1) The emulsion was prepared by separately mixing components in phase A and phase B at 75-80° C. for 15 minutes. The phases were then combined and mixed for another 10 minutes and cooled to 45° C. with stirring. Preservative was then added followed by citric acid to adjust pH to from abut 6.5 to 7.5. Stirring of the resulting mixture was continued until a temperature of 30° C. was reached. The activity tests were carried out using the following microorganisms: A. niger, B. cepacia, C. albicans, E. coli, P. aeruginosa and S. aureus. 50 g aliquots of the test emulsion containing various amounts of the preservative admixture as reported in Tables I-V were inoculated with approximately 10^7 -10^8 of the test organisms. The test samples then were stirred to disperse the challenge inoculum. The samples were incubated and assayed at 48 hours, 7, 14, 21 and 28 days. The assays were performed on 1 g, of the test sample by serially diluting 10^3 to 10^6 of the original concentration. The plating medium for bacteria was Letheen agar and for fungi it was low pH Mycophil agar with Tween 20. Each plated sample was incubated for 48 hours at 37° C. for bacteria, 5 days at 25° C. for mold and 3 days at 25° C. for fungi. After incubation, readings of the number of colonies per milliliter (cfu/ml) were made results were determined, as reported in associated Tables IA-VA. At 21 days the test product was reinoculated with half of the original inoculum.

B. cepacia 25416 = assay: Activity test: preservative challenge test in emulsion, B. cepacia 25416; type: cell-based; details: for number of colonies per milliliter, 28 days: reinoculated at 21 days
Experimental: as §1

E. coli 8739 = assay: Activity test: preservative challenge test in emulsion, E. coli 8739; type: cell-based; details: for number of colonies per milliliter, 28 days: reinoculated at 21 days
Experimental: as §1

C. albicans 10231 = assay: Activity test: preservative challenge test in emulsion, C. albicans 10231; type: cell-based; details: for number of colonies per milliliter, 28 days: reinoculated at 21 days
Experimental: as §1

P. aeruginosa 9027 = assay: Activity test: preservative challenge test in emulsion, P. aeruginosa 9027; type: cell-based; details: for number of colonies per milliliter, 28 days: reinoculated at 21 days
Experimental: as §1

A. niger 16404 = assay: Activity test: preservative challenge test in emulsion, A. niger 16404; type: cell-based; details: for number of colonies per milliliter, 28 days: reinoculated at 21 days
Experimental: as §1

CCCCOC(=O)c1ccc(O)cc1 [Parahydroxy butyl benzoate]
3.57: Log P [1]

C#CCOC(=O)c1ccc(O)c(Cl)c1 [Propargyl 3-Chloro-4-Hydroxybenzoate]
80 cfu/ml: number of colonies per milliliter, 14 days (P. aeruginosa 9027; 0.5% preservative in emulsion)
10000 cfu/ml: number of colonies per milliliter, 48 hr (A. niger 16404; 0.5% preservative in emulsion)
< 10 cfu/ml: number of colonies per milliliter, 7 days (S. aureus 6538; 0.5% preservative in emulsion) | number of colonies per milliliter, 14 days (S. aureus 6538; 0.5% preservative in emulsion) | number of colonies per milliliter, 21 days (S. aureus 6538; 0.5% preservative in emulsion) | number of colonies per milliliter, 28 days (S. aureus 6538; 0.5% preservative in emulsion) | number of colonies per milliliter, 7 days (E. coli 8739; 0.5% preservative in emulsion) | number of colonies per milliliter, 14 days (E. coli 8739; 0.5% preservative in emulsion) | number of colonies per milliliter, 21 days (E. coli 8739; 0.5% preservative in emulsion) | number of colonies per milliliter, 28 days (E. coli 8739; 0.5% preservative in emulsion) | number of colonies per milliliter, 14 days (C. albicans 10231; 0.5% preservative in emulsion) | number of colonies per milliliter, 21 days (C. albicans 10231; 0.5% preservative in emulsion) | number of colonies per milliliter, 28 days (C. albicans 10231; 0.5% preservative in emulsion) | number of colonies per milliliter, 48 hr (P. aeruginosa 9027; 0.5% preservative in emulsion) | number of colonies per milliliter, 7 days (P. aeruginosa 9027; 0.5% preservative in emulsion) | number of colonies per milliliter, 21 days (P. aeruginosa 9027; 0.5% preservative in emulsion) | number of colonies per milliliter, 28 days (P. aeruginosa 9027; 0.5% preservative in emulsion) | number of colonies per milliliter, 7 days (A. niger 16404; 0.5% preservative in emulsion) | number of colonies per milliliter, 14 days (A. niger 16404; 0.5% preservative in emulsion) | number of colonies per milliliter, 21 days (A. niger 16404; 0.5% preservative in emulsion) | number of colonies per milliliter, 28 days (A. niger 16404; 0.5% preservative in emulsion)
< 10^6 cfu/ml: number of colonies per milliliter, 7 days (B. cepacia 25416; 0.5% preservative in emulsion) | number of colonies per milliliter, 14 days (B. cepacia 25416; 0.5% preservative in emulsion) | number of colonies per milliliter, 21 days (B. cepacia 25416; 0.5% preservative in emulsion) | number of colonies per milliliter, 28 days (B. cepacia 25416; 0.5% preservative in emulsion)
370 cfu/ml: number of colonies per milliliter, 7 days (C. albicans 10231; 0.5% preservative in emulsion)
30 cfu/ml: number of colonies per milliliter, 48 hr (E. coli 8739; 0.5% preservative in emulsion)
280000 cfu/ml: number of colonies per milliliter, 48 hr (C. albicans 10231; 0.5% preservative in emulsion)
> 10^6 cfu/ml: number of colonies per milliliter, 48 hr (B. cepacia 25416; 0.5% preservative in emulsion)
9600 cfu/ml: number of colonies per milliliter, 48 hr (S. aureus 6538; 0.5% preservative in emulsion)

C#CCOC(=O)c1ccc(O)cc1O [Propargyl 2,4-Dihydroxybenzoate]
540 cfu/ml: number of colonies per milliliter, 48 hr (C. albicans 10231; 0.2% preservative in emulsion)
< 10 cfu/ml: number of colonies per milliliter, 48 hr (S. aureus 6538; 0.2% preservative in emulsion) | number of colonies per milliliter, 7 days (S. aureus 6538; 0.2% preservative in emulsion) | number of colonies per milliliter, 14 days (S. aureus 6538; 0.2% preservative in emulsion) | number of colonies per milliliter, 21 days (S. aureus 6538; 0.2% preservative in emulsion) | number of colonies per milliliter, 28 days (S. aureus 6538; 0.2% preservative in emulsion) | number of colonies per milliliter, 48 hr (B. cepacia 25416; 0.2% preservative in emulsion) | number of colonies per milliliter, 7 days (B. cepacia 25416; 0.2% preservative in emulsion) | number of colonies per milliliter, 14 days (B. cepacia 25416; 0.2% preservative in emulsion) | number of colonies per milliliter, 21 days (B. cepacia 25416; 0.2% preservative in emulsion) | number of colonies per milliliter, 28 days (B. cepacia 25416; 0.2% preservative in emulsion) | number of colonies per milliliter, 48 hr (E. coli 8739; 0.2% preservative in emulsion) | number of colonies per milliliter, 7 days (E. coli 8739; 0.2% preservative in emulsion) | number of colonies per milliliter, 14 days (E. coli 8739; 0.2% preservative in emulsion) | number of colonies per milliliter, 21 days (E. coli 8739; 0.2% preservative in emulsion) | number of colonies per milliliter, 28 days (E. coli 8739; 0.2% preservative in emulsion) | number of colonies per milliliter, 7 days (C. albicans 10231; 0.2% preservative in emulsion) | number of colonies per milliliter, 14 days (C. albicans 10231; 0.2% preservative in emulsion) | number of colonies per milliliter, 21 days (C. albicans 10231; 0.2% preservative in emulsion) | number of colonies per milliliter, 28 days (C. albicans 10231; 0.2% preservative in emulsion) | number of colonies per milliliter, 48 hr (P. aeruginosa 9027; 0.2% preservative in emulsion) | number of colonies per milliliter, 7 days (P. aeruginosa 9027; 0.2% preservative in emulsion) | number of colonies per milliliter, 14 days (P. aeruginosa 9027; 0.2% preservative in emulsion) | number of colonies per milliliter, 21 days (P. aeruginosa 9027; 0.2% preservative in emulsion) | number of colonies per milliliter, 28 days (P. aeruginosa 9027; 0.2% preservative in emulsion) | number of colonies per milliliter, 7 days (A. niger 16404; 0.2% preservative in emulsion) | number of colonies per milliliter, 14 days (A. niger 16404; 0.2% preservative in emulsion) | number of colonies per milliliter, 21 days (A. niger 16404; 0.2% preservative in emulsion) | number of colonies per milliliter, 28 days (A. niger 16404; 0.2% preservative in emulsion)
3500 cfu/ml: number of colonies per milliliter, 48 hr (A. niger 16404; 0.2% preservative in emulsion)

C#CCOC(=O)c1ccc(O)c(O)c1 [Propargyl 3,4-Dihydroxybenzoate]
< 10 cfu/ml: number of colonies per milliliter, 48 hr (S. aureus 6538; 0.5% preservative in emulsion) | number of colonies per milliliter, 7 days (S. aureus 6538; 0.5% preservative in emulsion) | number of colonies per milliliter, 14 days (S. aureus 6538; 0.5% preservative in emulsion) | number of colonies per milliliter, 21 days (S. aureus 6538; 0.5% preservative in emulsion) | number of colonies per milliliter, 28 days (S. aureus 6538; 0.5% preservative in emulsion) | number of colonies per milliliter, 48 hr (B. cepacia 25416; 0.5% preservative in emulsion) | number of colonies per milliliter, 7 days (B. cepacia 25416; 0.5% preservative in emulsion) | number of colonies per milliliter, 14 days (B. cepacia 25416; 0.5% preservative in emulsion) | number of colonies per milliliter, 21 days (B. cepacia 25416; 0.5% preservative in emulsion) | number of colonies per milliliter, 28 days (B. cepacia 25416; 0.5% preservative in emulsion) | number of colonies per milliliter, 48 hr (E. coli 8739; 0.5% preservative in emulsion) | number of colonies per milliliter, 7 days (E. coli 8739; 0.5% preservative in emulsion) | number of colonies per milliliter, 14 days (E. coli 8739; 0.5% preservative in emulsion) | number of colonies per milliliter, 21 days (E. coli 8739; 0.5% preservative in emulsion) | number of colonies per milliliter, 28 days (E. coli 8739; 0.5% preservative in emulsion) | number of colonies per milliliter, 48 hr (C. albicans 10231; 0.5% preservative in emulsion) | number of colonies per milliliter, 7 days (C. albicans 10231; 0.5% preservative in emulsion) | number of colonies per milliliter, 14 days (C. albicans 10231; 0.5% preservative in emulsion) | number of colonies per milliliter, 21 days (C. albicans 10231; 0.5% preservative in emulsion) | number of colonies per milliliter, 28 days (C. albicans 10231; 0.5% preservative in emulsion) | number of colonies per milliliter, 48 hr (P. aeruginosa 9027; 0.5% preservative in emulsion) | number of colonies per milliliter, 7 days (P. aeruginosa 9027; 0.5% preservative in emulsion) | number of colonies per milliliter, 14 days (P. aeruginosa 9027; 0.5% preservative in emulsion) | number of colonies per milliliter, 21 days (P. aeruginosa 9027; 0.5% preservative in emulsion) | number of colonies per milliliter, 28 days (P. aeruginosa 9027; 0.5% preservative in emulsion) | number of colonies per milliliter, 48 hr (A. niger 16404; 0.5% preservative in emulsion) | number of colonies per milliliter, 7 days (A. niger 16404; 0.5% preservative in emulsion) | number of colonies per milliliter, 14 days (A. niger 16404; 0.5% preservative in emulsion) | number of colonies per milliliter, 21 days (A. niger 16404; 0.5% preservative in emulsion) | number of colonies per milliliter, 28 days (A. niger 16404; 0.5% preservative in emulsion)
